Laboratory results: publication PMC12486301 (The Journal of pharmacology and experimental therapeutics, 2025)
Counter-ions that a name gives are not always drawn. Like-named read-outs stand apart in the source and are kept apart here.

Experiments:
ENT1 = target: T1, ENT1 (Homo sapiens, UniProt Q99808); assay: Inhibition of [3H]uridine uptake into WT HeLa; type: cell-based; details: for inhibition at 20 µM: HeLa; for ENT1 % Inhibition (±SD): model-predicted compounds from MedChem Express Drug Repurposing Library
T1 sequence (Q99808 1-456): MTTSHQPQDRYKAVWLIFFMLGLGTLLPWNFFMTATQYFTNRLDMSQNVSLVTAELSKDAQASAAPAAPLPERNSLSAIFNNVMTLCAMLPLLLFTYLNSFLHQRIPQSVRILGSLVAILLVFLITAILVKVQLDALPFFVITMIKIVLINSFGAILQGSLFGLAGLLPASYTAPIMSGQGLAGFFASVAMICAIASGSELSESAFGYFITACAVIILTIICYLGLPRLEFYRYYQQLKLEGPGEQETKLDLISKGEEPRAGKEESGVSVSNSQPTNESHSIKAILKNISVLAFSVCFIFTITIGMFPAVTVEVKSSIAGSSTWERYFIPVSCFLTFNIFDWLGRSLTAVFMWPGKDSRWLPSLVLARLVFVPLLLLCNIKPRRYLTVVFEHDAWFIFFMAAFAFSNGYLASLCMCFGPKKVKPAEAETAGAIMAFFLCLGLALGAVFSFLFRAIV

ENT2 = target: T2, ENT2 (Homo sapiens, UniProt Q14542); assay: Inhibition of [3H]uridine uptake into HeLa FlpIn cells overexpressing hENT2; type: cell-based; details: for inhibition at 20 µM: HeLa, read-out: ENT2 % Inhibition (20μM); for ENT2 % Inhibition (20μM): 20 μM compound, 5 min [3H]uridine uptake, HeLa cells overexpressing hENT2
T2 sequence (Q14542 1-456): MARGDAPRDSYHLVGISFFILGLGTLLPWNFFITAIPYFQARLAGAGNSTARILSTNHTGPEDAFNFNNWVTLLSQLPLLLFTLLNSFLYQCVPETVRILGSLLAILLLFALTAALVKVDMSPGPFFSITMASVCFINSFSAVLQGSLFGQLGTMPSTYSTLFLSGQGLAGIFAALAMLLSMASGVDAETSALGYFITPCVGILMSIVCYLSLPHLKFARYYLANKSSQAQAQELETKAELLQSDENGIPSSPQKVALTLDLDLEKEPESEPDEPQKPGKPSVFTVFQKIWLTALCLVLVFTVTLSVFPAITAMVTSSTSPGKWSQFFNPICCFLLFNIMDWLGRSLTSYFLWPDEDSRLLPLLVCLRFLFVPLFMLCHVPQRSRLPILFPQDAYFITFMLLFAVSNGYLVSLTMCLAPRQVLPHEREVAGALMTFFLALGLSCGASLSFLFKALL

[1] = read-out: ENT1 % Inhibition (±SD)
[2] = read-out: ENT1 % Inhibition (20μM)

Cc1c(OCC(F)(F)F)ccnc1C[S@@+]([O-])c1nc2ccccc2[nH]1 [(R)-Lansoprazole] gave an inhibition at 20 µM (ENT1; [1]) of 73.6%.
For C[C@]12CC[C@@H]3c4ccc(O)cc4CC[C@H]3[C@@H]1CC[C@H]2O [Alpha-Estradiol], the inhibition at 20 µM (ENT1; [1]) was 77.2%.
COc1cc(OC)c2c(=O)[nH]c(-c3cc(C)c(OCCO)c(C)c3)nc2c1 [Apabetalone] was tested, and the inhibition at 20 µM (ENT1; [1]) was 88.1%.
Work on COc1cc(C[C@H]2C(=O)OC[C@@H]2Cc2ccc(OC)c(OC)c2)ccc1O [Arctigenin] yielded an inhibition at 20 µM (ENT1; [1]) of 67.5%.
For CC[C@@H](C(=O)Nc1ccc(C(N)=O)c(F)c1)n1cc(OC)c(-c2cc(Cl)ccc2-n2cc(C(F)(F)F)nn2)cc1=O [Asundexian], the “ENT1 % Inhibition (±SD)” value (ENT1; 20 μM) was 95.39 (0.23) %.
COc1ccc(CN=c2[nH]c(N3CCC[C@H]3CO)ncc2C(=O)NCc2ncccn2)cc1Cl [Avanafil] showed an inhibition at 20 µM (ENT1; [1]) of 100%.
In the case of COc1cccc(C(=O)COc2ccc(CC3SC(=O)NC3=O)cc2)c1 (stereo not shown) [Azemiglitazone], the “ENT1 % Inhibition (±SD)” value (ENT1; 20 μM) is reported as 74.95 (4.00) %.
In the case of COc1cc(C(=O)c2c(C)oc3c(O)c(OC)ccc23)cc(OC)c1OC [BNC105], the “ENT1 % Inhibition (±SD)” value (ENT1; 20 μM) is reported as 97.87 (1.06) %.
For COC(=O)c1cc(OC)c2c(c1-c1c(CO)cc(OC)c3c1OCO3)OCO2 [Bicyclol], the inhibition at 20 µM (ENT1; [1]) was 72.3%.
For COc1ccc(S(=O)(=O)Nc2cc(-c3c(O)ccc4ccccc34)c(O)c3ccccc23)cc1 [C188-9], the “ENT1 % Inhibition (±SD)” value (ENT1; 20 μM) was 72.99 (5.06) %.
CCOc1ccc2c(-c3cccc(F)c3)nn(CC(=O)N(C)c3ccc4nc(C)oc4c3)c(=O)c2c1 [CFTR corrector 2] showed an inhibition at 20 µM (ENT1; [1]) of 98%.
In the case of COc1ccc(-c2c(Cl)ncn2-c2ccc(S(N)(=O)=O)cc2)cc1F [Cimicoxib], the inhibition at 20 µM (ENT1; [1]) is reported as 57.3%.
For COc1cc2c(cc1OC)-c1c/c(=N\c3c(C)cc(C)cc3C)n(CCNC(N)=O)c(=O)n1CC2 [Ensifentrine], the inhibition at 20 µM (ENT1; [1]) was 98.2%.
O=C(O[C@@H]1Cc2c(O)cc(O)cc2O[C@@H]1c1ccc(O)c(O)c1)c1cc(O)c(O)c(O)c1 [Epicatechin gallate] was tested, and the IC50 (ENT1) was 4 µM and the inhibition at 20 µM (ENT1; read-out: ENT1 inhibition of uridine uptake (Spectrum screen, text)) was ~85%.
In the case of CO[C@H]1C[C@@H]2CC[C@@H](C)[C@@](O)(O2)C(=O)C(=O)N2CCCC[C@H]2C(=O)O[C@H]([C@H](C)C[C@@H]2CC[C@@H](OCCO)[C@H](OC)C2)CC(=O)[C@H](C)/C=C(\C)[C@@H](O)[C@@H](OC)C(=O)[C@H](C)C[C@H](C)/C=C/C=C/C=C/1C [Everolimus], the inhibition at 20 µM (ENT1; [1]) is reported as 92%.
C#CCOc1ccc(/C=C/C(=O)Nc2ccccc2C(=O)O)cc1OC [FT011] was tested, and the “ENT1 % Inhibition (±SD)” value (ENT1; 20 μM) was 54.94 (2.47) %.
In the case of COc1cccc(-c2cc(F)c(Nc3ncccc3C(=O)O)c(F)c2)c1 [Farudodstat], the inhibition at 20 µM (ENT1; [1]) is reported as 86.8%.
COc1cc(-c2cnc3cc(OCCN4CCOCC4)ccn23)cc2c1C(=O)N(CC(F)(F)F)CC2 [GLPG3970] gave an inhibition at 20 µM (ENT1; [1]) of 68.1%.
Work on Cc1cccc(-c2nn3c(c2-c2ccnc4ccc(C(N)=O)cc24)CCC3)n1 [Galunisertib] yielded an inhibition at 20 µM (ENT1; [1]) of 56.2%.
With CO[C@H]1CC[C@H](n2c([C@@H]3CCCC(=O)N3c3ccc(F)c(F)c3)nc3cc(-c4c(C)noc4C)ccc32)CC1 [Inobrodib] the inhibition at 20 µM (ENT1; [1]) was 91.4%.
COC(=O)C1=C(C)NC(C)=C(C(=O)OC(C)C)C1c1cccc2nonc12 (stereo not shown) [Isradipine] gave an inhibition at 20 µM (ENT1; [1]) of 92.7%.
CCn1c(=O)c2c(nc(/C=C/c3ccc(OC)c(OC)c3)n2C)n(CC)c1=O [Istradefylline] was tested, and the inhibition at 20 µM (ENT1; [1]) was 96.1%.
CNc1nc(-c2cccc(NC(=O)c3ccc(C(=O)OC)cc3)c2)c2cc(OC)c(OC)cc2n1 [Lotamilast] was tested, and the inhibition at 20 µM (ENT1; [1]) was 81.3%.
With Cc1ccc(C(=O)Nc2ccc(Oc3cc4cnn(C)c4cc3-c3cn[nH]c3)c(F)c2)c(=O)n1-c1ccc(F)cc1.Cl.Cl [Merestinib dihydrochloride] the “ENT1 % Inhibition (±SD)” value (ENT1; 20 μM) was 58.49 (4.13) %.
CCCOc1ccc(S(=O)(=O)N2CCN(CCO)CC2)cc1-c1nc2c(CCC)cn(CC)c2c(=O)[nH]1 [Mirodenafil (dihydrochloride), Mirodenafil] gave an inhibition at 20 µM (ENT1; [1]) of 79.3%.
C#Cc1cccc(Nc2ncnc3cc(OC)c(OCCCN4CCOCC4)cc23)c1 [NRC-2694] was tested, and the “ENT1 % Inhibition (±SD)” value (ENT1; 20 μM) was 67.27 (11.1) %.
COC(=O)C1=C(C)NC(C)=C(C(=O)OCCN(C)Cc2ccccc2)C1c1cccc([N+](=O)[O-])c1 (stereo not shown) [Nicardipine (hydrochloride), Nicardipine] gave an inhibition at 20 µM (ENT1; [1]) of 76.8%.
COC(=O)C1=C(C)NC(C)=C(C(=O)OC)C1c1ccccc1[N+](=O)[O-] [Nifedipine] gave an inhibition at 20 µM (ENT1; [1]) of 72.6%.
CC(=O)O[C@]1(C(C)=O)CC[C@H]2[C@@H]3C=C(C)C4=CC(=O)CC[C@@H]4[C@H]3CC[C@@]21C [Nomegestrol acetate] was tested, and the inhibition at 20 µM (ENT1; [1]) was 82.9%.
CCCCC1(CCCC)CN(c2ccccc2)c2cc(SC)c(OCC(=O)N[C@@H](C(=O)N[C@@H](CC)C(=O)O)c3ccc(O)cc3)cc2S(=O)(=O)N1 [Odevixibat] was tested, and the inhibition at 20 µM (ENT1; [1]) was 78.3%.
COc1ccc2[nH]c([S+]([O-])Cc3ncc(C)c(OC)c3C)nc2c1 (stereo not shown) [Omeprazole (sodium), Omeprazole] showed an inhibition at 20 µM (ENT1; [1]) of 51.3%.
For C=CC(=O)N1CCC(c2ccc(C(N)=O)c(-c3ccc(Oc4ccccc4)cc3)n2)CC1 [Orelabrutinib], the inhibition at 20 µM (ENT1; [1]) was 87.5%.
In the case of CCn1cnc2c(-c3ccc(F)c(-c4ccc(S(=O)(=O)CC)cc4OC)c3)cnnc21 [PF-06372865], the “ENT1 % Inhibition (±SD)” value (ENT1; 20 μM) is reported as 100.45 (0.02) %.
With Oc1ccc(C2=Cc3ccc(O)cc3OC2)cc1 [Phenoxodiol] the inhibition at 20 µM (ENT1; [1]) was 69.3%.
Work on COc1cc(/C=C/c2ccc(O)cc2)cc(OC)c1 [Pterostilbene] yielded an inhibition at 20 µM (ENT1; [1]) of 54.7%.
In the case of COc1cccc(-c2nccc3[nH]c(=O)c(-c4noc(C)n4)cc23)c1 [Radequinil], the “ENT1 % Inhibition (±SD)” value (ENT1; 20 μM) is reported as 98.17 (0.19) %.
In the case of COc1cc([C@H]2Oc3cc([C@H]4Oc5cc(O)cc(O)c5C(=O)[C@@H]4O)ccc3O[C@@H]2CO)ccc1O [Silybin A], the inhibition at 20 µM (ENT1; [1]) is reported as 67.5%.
COc1cc2c(Nc3ccc(Br)cc3F)ncnc2cc1OCC1CCN(C)CC1 [Vandetanib] was tested, and the inhibition at 20 µM (ENT1; [1]) was 50.3%.
With C/C=C/c1cc(OC)c(OC)cc1OC [alpha-Asarone] the “ENT1 % Inhibition (±SD)” value (ENT1; 20 μM) was 52.42 (3.92) %.
CCc1oc2ccccc2c1C(=O)c1cc(Br)c(O)c(Br)c1 [benzbromarone] gave an IC50 (ENT2) of 262 ± 108 µM, an inhibition at 20 µM (ENT2) of 25.4% and an IC50 (ENT1) of 29.8 ± 2.1 µM. For the same compound, the inhibition at 20 µM (ENT1; [2]) was 79.6%.
In the case of Cc1ccc([C@@H]2O[C@H](CO)[C@@H](O)[C@H](O)[C@H]2O)cc1Cc1ccc(-c2ccc(F)cc2)s1 [canagliflozin], the “ENT2 % Inhibition (20μM)” value (ENT2) is reported as 56.5%, the “ENT1 % Inhibition (20μM)” value (ENT1; 20 μM compound, 5 min [3H]uridine uptake, WT HeLa cells) is reported as 74.5% and the IC50 (ENT1; read-out: ENT1 IC50 (μM) ± SD, 5 min uptake of ~10 nM [3H]uridine, WT HeLa cells) is reported as 24 ± 5.1 µM.
Compound O=c1[nH]c2ccccc2n1CCCN1CCC(n2c(=O)[nH]c3cc(Cl)ccc32)CC1 [domperidone] has an IC50 (ENT2) of 0.16 ± 0.04 µM, an inhibition at 20 µM (ENT2) of 64.3% and an inhibition at 20 µM (ENT1; [2]) of 24.4%.
Compound CCOC(=O)c1ncn2c1CN(C)C(=O)c1cc(F)ccc1-2 [flumazenil] has an IC50 (ENT2) of 3.82 ± 0.3 µM, an inhibition at 20 µM (ENT2) of 85.1% and an IC50 (ENT1) of 121 ± 0.7 µM. The inhibition at 20 µM (ENT1; [2]) was 20%.
COc1cc2ncnc(Nc3ccc(F)c(Cl)c3)c2cc1OCCCN1CCOCC1 [gefitinib] gave an inhibition at 20 µM (ENT2) of 54.6%.
In the case of COc1cc(O)cc(O)c1C(=O)c1ccccc1 [isocotoin], the “ENT1 inhibition of uridine uptake (Spectrum screen, text)” value (ENT1; 20 μM, Spectrum Collection screen (Table S1)) is reported as ~ 65% and the IC50 (ENT1; read-out: predicted IC50 for ENT1, predicted from inhibition at 20 μM) is reported as 12 µM.
For NC[C@H]1O[C@H](O[C@H]2[C@H](O)[C@@H](O[C@H]3O[C@H](CO)[C@@H](O)[C@H](N)[C@H]3O)[C@H](N)C[C@@H]2N)[C@H](O)[C@@H](O)[C@@H]1O [kanamycin], the “ENT2 % Inhibition (20μM)” value (ENT2) was 11.7% and the “ENT1 % Inhibition (20μM)” value (ENT1) was 43.7%.
With CCCCc1nc(Cl)c(CO)n1Cc1ccc(-c2ccccc2-c2nn[nH]n2)cc1 [losartan] the IC50 (ENT2) was 172 ± 60.2 µM and the inhibition at 20 µM (ENT2) was 33%.
